The target of the test is PAFR (Homo sapiens, UniProt P25105). Kind of test: PAF Binding Assay (PAFR binding).

Each structure is given as a SMILES string.

Usually IC50 stands for the concentration that gives 50% inhibition.

Sequence of PAFR (P25105 whole entry): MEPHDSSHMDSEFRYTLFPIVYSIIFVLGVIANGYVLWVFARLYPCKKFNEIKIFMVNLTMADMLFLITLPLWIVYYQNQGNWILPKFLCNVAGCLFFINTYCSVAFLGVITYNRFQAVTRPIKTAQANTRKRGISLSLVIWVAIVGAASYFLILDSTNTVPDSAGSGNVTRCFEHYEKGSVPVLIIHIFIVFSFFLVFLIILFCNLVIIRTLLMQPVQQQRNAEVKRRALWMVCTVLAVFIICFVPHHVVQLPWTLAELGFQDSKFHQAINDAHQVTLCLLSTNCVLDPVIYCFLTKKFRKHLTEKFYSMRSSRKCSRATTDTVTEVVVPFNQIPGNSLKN

As for `CCc1cc(-n2cccn2)ccc1S(=O)(=O)N[C@H]1CCC[C@@H](n2cnnc2)C1` [Compound 6a, 2-ethyl-4-(1H-pyrazol-1-yl)-N-[(1S,3R)-3-(4H-1,2,4-triazol-4-yl)cyclohexyl]benzenesulfonamide], the half-inhibitory concentration (IC50) was determined as 68 nM. On to `O=S(=O)(N[C@H]1CCC[C@@H](n2cnnc2)C1)c1cc(F)c(-c2ccc(OC(F)(F)F)cc2)cc1F` [Compound 2Mo, 2,5-difluoro-N-[(1S,3R)-3-(4H-1,2,4-triazol-4-yl)cyclohexyl]-4′-(trifluoromethoxy)biphenyl-4-sulfonamide], for which the concentration for half-maximal inhibition (IC50) worked out at 12 nM. As for `O=S(=O)(N[C@@H]1C[C@H](n2cnnc2)CC(F)(F)C1)c1ccc(-c2ccc(OCC(F)(F)F)nc2)c(F)c1` [2 Gf, N-[(1R,5S)-3,3-difluoro-5-(4H-1,2,4-triazol-4-yl)cyclohexyl]-3-fluoro-4-[6-(2,2,2-trifluoroethoxy)pyridin-3-yl]benzenesulfonamide], the figure is 4.4 nM. `CCc1cc(-c2cccc(F)c2)ccc1S(=O)(=O)N[C@H]1CCC[C@@H](n2cnnc2)C1` [2 Am, 3-ethyl-3′-fluoro-N-[(1S,3R)-3-(4H-1,2,4-triazol-4-yl)cyclohexyl]benzenesulfonamide] registered an IC50 of 33 nM. Then `CCc1cc(-c2ncc(COC)s2)ccc1S(=O)(=O)N[C@H]1CCC[C@@H](n2cnnc2)C1` [Compound 2Aba, 2-ethyl-4-[5-(methoxymethyl)-1,3-thiazol-2-yl]-N-[(1S,3R)-3-(4H-1,2,4-triazol-4-yl)cyclohexyl]benzenesulfonamide], with 41 nM; and `CCc1cc(-c2cncs2)ccc1S(=O)(=O)N[C@H]1CCC[C@@H](n2cnnc2)C1` [Compound 2Aax, 2-ethyl-4-(1,3-thiazol-5-yl)-N-[(1S,3R)-3-(4H-1,2,4-triazol-4-yl)cyclohexyl]benzenesulfonamide], with 203 nM; and `O=S(=O)(N[C@H]1CCC[C@@H](n2cnnc2)C1)c1cc(-c2ccn3nccc3n2)cc(C(F)(F)F)c1` [Compound 3Aak, 3-pyrazolo[1,5-a]pyrimidin-5-yl-N-[(1S,3R)-3-(4H-1,2,4-triazol-4-yl)cyclohexyl]-5-(trifluoromethyl)benzenesulfonamide], with 3.6 nM. The compound `O=S(=O)(N[C@H]1CCC[C@@H](n2cnnc2)C1)c1cc(-c2ccccc2OC(F)(F)F)cc(C(F)(F)F)c1` [Compound 3Am, N-[(1S,3R)-3-(4H-1,2,4-triazol-4-yl)cyclohexyl]-2′-(trifluoromethoxy)-5-(trifluoromethyl)biphenyl-3-sulfonamide] yielded an IC50 of 4.9 nM. For `O=S(=O)(N[C@H]1CCC[C@@H](n2cnnc2)C1)c1cc(-c2ccncc2)cc(C(F)(F)F)c1` [Compound 3An, 3-pyridin-4-yl-N-[(1S,3R)-3-(4H-1,2,4-triazol-4-yl)cyclohexyl]-5-(trifluoromethyl)benzenesulfonamide], the IC50 came to 36 nM. This IC50 is about 7.3-fold higher than that of the compound before. Turning to `O=S(=O)(N[C@H]1CCC[C@@H](n2cnnc2)C1)c1cc(-c2ccc3nc(C(F)(F)F)nn3n2)cc(C(F)(F)F)c1` [Compound 3Aah, N-[(1S,3R)-3-(4H-1,2,4-triazol-4-yl)cyclohexyl]-3-(trifluoromethyl)-5-[2-(trifluoromethyl)[1,2,4]triazolo[1,5-b]pyridazin-6-yl]benzenesulfonamide], the IC50 stood at 18 nM. `CCCCOc1ccc(S(=O)(=O)N[C@H]2CCC[C@@H](n3cnnc3C3CC3)C2)cc1` [Compound 2Ow, 4-butoxy-N-[(1S,3R)-3-(3-cyclopropyl-4H-1,2,4-triazol-4-yl)cyclohexyl]benzenesulfonamide] gave an IC50 of 4.1 nM.

Values taken from patent US9029377B2, “Platelet-activating factor receptor antagonists” (Merck Sharp & Dohme Corp., priority 2009, dated 2015).
